Results on 37 compounds are retold here after patent US8088806B2 (Achillion Pharmaceuticals, Inc., priority 2005, dated 2012).

The structures appear in SMILES notation.

The test system of this assay is HCV replicon. Briefly: Replicon based assay of HCV replication inhibition (NPT ELISA). It counts as cell-based, Hepatitis C virus. Particulars: Hepatitis C virus, Huh-7, 72 h, Table III; Huh-7 HCV replicon-containing cells, three days; read-out: Activity. In short, it runs like this: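 Huh-7 cells carrying a bicistronic HCV replicon (neo, EMCV-IRES-driven NS3–NS5B) treated overnight after seeding with usually 6 concentrations, 10 to 0.03 micromolar, for three days at 37° C without G418. Replication read as NPT level by captured ELISA; matched-DMSO wells and interferon alpha as controls.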
As for `CCCCCCCCOc1ccc(Nc2nc(-c3ccsc3C#N)cs2)cc1C(F)(F)F` [compound 671, 3-(2-(3-(trifluoromethyl)-4-(octyloxy)phenylamino)thiazol-4-yl)thiophene-2-carbonitrile], the EC50 is less than 1000 nM.
Under `CCCCCCCCOc1ccc(Nc2nc(-c3cnc(Cl)c(C(=O)OC)c3)cs2)cc1C(F)(F)F` [compound 672, methyl 5-(2-(3-(trifluoromethyl)-4-(octyloxy)phenylamino)thiazol-4-yl)-2-chloropyridine-3-carboxylate] stands less than 1000 nM.
Turning to `CCCCCCCCOc1ccc(Nc2nc(-c3ccc4nccn4c3)cs2)cc1C(F)(F)F` [compound 673, N-(3-(trifluoromethyl)-4-(octyloxy)phenyl)-4-(H-imidazo[1,2-a]pyridin-6-yl)thiazol-2-amine], the EC50 was less than 1000 nM.
As for `CCCCCCCCOc1ccc(Nc2nc(-c3cnc4ccc(C#N)cn34)cs2)cc1C(F)(F)F` [compound 674, 3-(2-(3-(trifluoromethyl)-4-(octyloxy)phenylamino)thiazol-4-yl)H-imidazo[1,2-a]pyridine-6-carbonitrile], the EC50 was less than 1000 nM.
`CCCCCCC(C)Oc1ccc(Nc2nc(-c3cccnc3)cs2)cc1C(F)(F)F` (stereo not shown) [compound 675, N-(3-(trifluoromethyl)-4-(octan-2-yloxy)phenyl)-4-(pyridin-3-yl)thiazol-2-amine]: the EC50 is less than 1000 nM.
For the compound `CCCCCCC(C)Oc1ccc(Nc2nc(-c3ccc(NC(C)=O)nc3)cs2)cc1C(F)(F)F` (stereo not shown) [compound 676, N-(5-(2-(3-(trifluoromethyl)-4-(octan-2-yloxy)phenylamino)thiazol-4-yl)pyridin-2-yl)acetamide], the EC50 was less than 1000 nM.
Under `CCCCCCC(C)Oc1ccc(Nc2nc(-c3ccc(N)nc3)cs2)cc1C(F)(F)F` (stereo not shown) [compound 677, 5-(2-(3-(trifluoromethyl)-4-(octan-2-yloxy)phenylamino)thiazol-4-yl)pyridin-2-amine] stands less than 1000 nM; under `CCCCCCCCOc1ccc(Nc2nc(-c3ccc(NC(C)=O)nc3)cs2)cc1C(F)(F)F` [compound 678, N-(5-(2-(3-(trifluoromethyl)-4-(octyloxy)phenylamino)thiazol-4-yl)pyridin-2-yl)acetamide], less than 1000 nM.
Under `CCCCCCCCOc1ccc(Nc2nc(-c3ccc(N)nc3)cs2)cc1C(F)(F)F` [compound 679, 5-(2-(3-(trifluoromethyl)-4-(octyloxy)phenylamino)thiazol-4-yl)pyridin-2-amine] stands less than 1000 nM; under `CCCC(CCC)Oc1ccc(Nc2nc(-c3cccnc3)cs2)cc1C(F)(F)F` [compound 680, N-(3-(trifluoromethyl)-4-(heptan-4-yloxy)phenyl)-4-(pyridin-3-yl)thiazol-2-amine], less than 1000 nM.
Under `CCCCCCCCOc1ccc(Nc2nc(-c3ncccn3)cs2)cc1C(F)(F)F` [compound 681, N-(3-(trifluoromethyl)-4-(octyloxy)phenyl)-4-(pyrimidin-2-yl)thiazol-2-amine] stands less than 1000 nM; under `FC(F)(F)c1cc(Nc2nc(-c3cccnc3)cs2)ccc1OCCCc1ccccc1` [compound 682, N-(4-(3-phenylpropoxy)-3-(trifluoromethyl)phenyl)-4-(pyridin-3-yl)thiazol-2-amine], less than 1000 nM.
On to `CCCCCCCCOc1cccc(Nc2nc(-c3cccnc3)cs2)c1` [compound 683, N-(3-(octyloxy)phenyl)-4-(pyridin-3-yl)thiazol-2-amine], for which the EC50 is less than 1000 nM.
Under `CCCCCCCCN(C)c1ncc(Nc2nc(-c3cccnc3)cs2)cc1C(F)(F)F` [compound 684, 3-(trifluoromethyl)-N^2-methyl-N^2-octyl-N^5-(4-(pyridin-3-yl)thiazol-2-yl)pyridine-2,5-diamine] stands greater than 10000 nM.
Under `CCCCCCCCOc1ccc(Nc2nc(-c3ccc(N)nc3)cs2)cc1` [compound 685, 5-(2-(4-(octyloxy)phenylamino)thiazol-4-yl)pyridin-2-amine] stands less than 1000 nM; under `CCCCCCCCOc1ccc(Nc2nc(-c3cnc(NC(C)=O)c(C)c3)cs2)cc1C(F)(F)F` [compound 686, N-(5-(2-(3-(trifluoromethyl)-4-(octyloxy)phenylamino)thiazol-4-yl)-3-methylpyridin-2-yl)acetamide], less than 1000 nM; under `CCCCCCCCOc1ccc(Nc2nc(-c3cnc(N)c(C)c3)cs2)cc1C(F)(F)F` [compound 687, 5-(2-(3-(trifluoromethyl)-4-(octyloxy)phenylamino)thiazol-4-yl)-3-methylpyridin-2-amine], less than 1000 nM.
The result for `CCCCCCCCOc1ccc(Nc2nc(-c3cnc(NC(C)=O)c(C)c3)cs2)cc1` [compound 688, N-(5-(2-(4-(octyloxy)phenylamino)thiazol-4-yl)-3-methylpyridin-2-yl)acetamide] reads 1000 to 10000 nM.
Take `CCCCCCCCN(C)c1ccc(Nc2nc(-c3cnc(OC)nc3)cs2)cc1C(F)(F)F` [compound 689, 2-(trifluoromethyl)-N^4-(4-(2-methoxypyrimidin-5-yl)thiazol-2-yl)-N^1-methyl-N-octylbenzene-1,4-diamine]: the EC50 is less than 1000 nM.
As to `CC(C)=CCC/C(C)=C/COc1ccc(Nc2nc(-c3cccnc3)cs2)cc1C(F)(F)F` [compound 690, N-(4-((E)-3,7-dimethylocta-2,6-dienyloxy)-3-(trifluoromethyl)phenyl)-4-(pyridin-3-yl)thiazol-2-amine], the EC50 was less than 1000 nM.
Under `CC(C)CCCC(C)CCOc1ccc(Nc2nc(-c3cccnc3)cs2)cc1C(F)(F)F` (stereo not shown) [compound 691, N-(4-(3,7-dimethyloctyloxy)-3-(trifluoromethyl)phenyl)-4-(pyridin-3-yl)thiazol-2-amine] stands less than 1000 nM.
Under `CCCCCCCCSc1ccc(Nc2nc(-c3cccnc3)cs2)cc1C(F)(F)F` [compound 692, N-(3-(trifluoromethyl)-4-(octylthio)phenyl)-4-(pyridin-3-yl)thiazol-2-amine] stands less than 1000 nM; under `FC(F)(F)c1cc(Nc2nc(-c3cccnc3)cs2)ccc1OCCCN1CCOCC1` [compound 693, N-(4-(3-morpholinopropoxy)-3-(trifluoromethyl)phenyl)-4-(pyridin-3-yl)thiazol-2-amine], 1000 to 10000 nM; under `CN1CCN(CCCOc2ccc(Nc3nc(-c4cccnc4)cs3)cc2C(F)(F)F)CC1` [compound 694, N-(4-(3-(4-methylpiperazin-1-yl)propoxy)-3-(trifluoromethyl)phenyl)-4-(pyridin-3-yl)thiazol-2-amine], 1000 to 10000 nM.
The result for `CN(C)CCCOc1ccc(Nc2nc(-c3cccnc3)cs2)cc1C(F)(F)F` [compound 695, N-(4-(3-(dimethylamino)propoxy)-3-(trifluoromethyl)phenyl)-4-(pyridin-3-yl)thiazol-2-amine] reads 1000 to 10000 nM.
Consider `FC(F)(F)c1cc(Nc2nc(-c3cccnc3)cs2)ccc1OCCCN1CCCC1` [compound 696, N-(4-(3-(pyrrolidin-1-yl)propoxy)-3-(trifluoromethyl)phenyl)-4-(pyridin-3-yl)thiazol-2-amine], for which the EC50 lay in the range of 1000 to 10000 nM.
The result for `CCCCCCCCOC(=O)c1ccc(Nc2nc(-c3cccnc3)cs2)cc1C(F)(F)F` [compound 697, octyl 4-(4-(pyridin-3-yl)thiazol-2-ylamino)-2-(trifluoromethyl)benzoate] reads less than 1000 nM; that for `FC(F)(F)c1cc(Nc2nc(-c3cccnc3)cs2)ccc1N1CCC2CCCCC2C1` (stereo not shown) [compound 698, N-(3-(trifluoromethyl)-4-(octahydroisoquinolin-2(1H)-yl)phenyl)-4-(pyridin-3-yl)thiazol-2-amine], less than 1000 nM.
The result for `O=C(c1ccc(Nc2nc(-c3ccc(F)cc3)cs2)cc1C(F)(F)F)N1CCC2CCCCC2C1` (stereo not shown) [compound 699, (4-(4-(4-fluorophenyl)thiazol-2-ylamino)-2-(trifluoromethyl)phenyl)(octahy-droisoquinolin-2(1H)-yl)methanone] reads greater than 10000 nM.
The result for `CCCCCCCCOC(=O)c1ccc(Nc2nc(-c3ccc(F)cc3)cs2)cc1C(F)(F)F` [compound 700, octyl 4-(4-(4-fluorophenyl)thiazol-2-ylamino)-2-(trifluoromethyl)benzoate] reads less than 1000 nM; that for `CCCCCCCCOc1ccc(Nc2nc(-c3ccc4ncccc4n3)cs2)cc1C(F)(F)F` [compound 701, 4-(6-deuterated-1,5-naphthyndin-2-yl)-N-(4-(octyloxy)-3-(trifluoromethyl)phenyl)thiazol-2-amine], less than 1000 nM; that for `CCCCCCCCOc1ccc(Nc2nc(-c3cncnc3-c3ccccc3)cs2)cc1C(F)(F)F` [compound 702, N-(3-(trifluoromethyl)-4-(octyloxy)phenyl)-4-(4-phenylpyrimidin-5-yl)thiazol-2-amine], less than 1000 nM.
As for `CCCCCCCCOc1ccc(Nc2nc(-c3ccc(C#N)o3)cs2)cc1C(F)(F)F` [compound 703, 5-(2-(3-(trifluoromethyl)-4-(octyloxy)phenylamino)thiazol-4-yl)furan-2-carbonitrile], the EC50 was less than 1000 nM.
The result for `CCCCCCCCOc1ccc(Nc2nc(-c3ccc4oc(CO)cc4c3)cs2)cc1C(F)(F)F` [compound 704, (5-(2-(3-(trifluoromethyl)-4-(octyloxy)phenylamino)thiazol-4-yl)benzofuran-2-yl)methanol] reads less than 1000 nM; that for `CCCCCCCCOc1ccc(Nc2nc(-c3cccc(OC)n3)cs2)cc1C(F)(F)F` [compound 705, N-(3-(trifluoromethyl)-4-(octyloxy)phenyl)-4-(6-methoxypyridin-2-yl)thiazol-2-amine], less than 1000 nM; that for `CCCCCCCCOc1ccc(Nc2nc(-c3ccc4c(c3)OCO4)cs2)cc1C(F)(F)F` [compound 706, 4-(benzo[d][1,3]dioxol-5-yl)-N-(3-(trifluoromethyl)-4-(octyloxy)phenyl)thiazol-2-amine], less than 1000 nM.
Turning to `CCCCCCCCOc1ccc(Nc2nc(-c3ccc4cc(OC)ccc4c3)cs2)cc1C(F)(F)F` [compound 707, N-(3-(trifluoromethyl)-4-(octyloxy)phenyl)-4-(2-methoxynaphthalen-6-yl)thiazol-2-amine], the EC50 is less than 1000 nM.
